Measurements as given in ChEMBL document CHEMBL4825758, “Discovery of G Protein-Biased Antagonists against 5-HT7R” (J Med Chem, 2021).

Assay: Metabolic stability in human liver microsomes assessed as parent compound remaining at 1 uM preincubated for 5 mins followed by NADPH regeneration system addition and measured after 30 mins by LC-MS analysis
Type: ADME, Microsome
Settings: time 35 min, read-out: Stabilty

Clc1cccc(-c2n[nH]cc2N2CCCNCC2)c1
remaining at 0.5 h, 1 µM: 27.5%
